# Results published in patent US9834518B2, “Compounds for inhibiting cell proliferation in EGFR-driven cancers” (ARIAD Pharmaceuticals, Inc., priority 2011, dated 2017).
# Legend:
# [1] = biological target: human EGFR (native sequence) (Homo sapiens, UniProt P00533); test: Kinase inhibition, human EGFR (native sequence); type: biochemical; settings: 10 μM ATP; 10 pt curves, 3 μM top concentration (singlicates)
# Procedure: (§1) Kinase inhibitory activity of the compounds was measured against human EGFR (native sequence) and against EGFR bearing the L858R mution and the L858R/T790M double mutation (EGFR, L858R, and L858R/T790M, respectively in Table 1). Additional assays can be conducted with EGFR deletion mutants such as delE746-A750 with or without the additional T790M mutation. Assay conditions included 10 pt curves with 3 μM top concentration (singlicates) and 10 μM ATP.
# [2] = biological target: EGFR bearing the L858R mution (Homo sapiens, UniProt P00533, L858R); test: Kinase inhibition, EGFR L858R; type: biochemical; settings: 10 μM ATP; 10 pt curves, 3 μM top concentration (singlicates)
# Procedure: as §1
# [3] = biological target: EGFR bearing the L858R/T790M double mutation (Homo sapiens, UniProt P00533, L858R/T790M); test: Kinase inhibition, EGFR L858R/T790M; type: biochemical; settings: 10 μM ATP; 10 pt curves, 3 μM top concentration (singlicates)
# Procedure: as §1
# [4] = test system: BAF3 PARENTAL; test: Cell proliferation (MTT), BAF3 parental; type: cell-based; settings: Mus musculus
# Procedure: (§2) We also assessed the antiproliferative activity of compounds of Formula (I) against BaF3 cells expressing the target EGFR mutations or control (i.e., cell lines expressing wildtype EGFR). Assays were conducted using MTT.
# [5] = biological target: BAF3 EGFR DEL T790M PURO POOL (Homo sapiens, UniProt P00533, DEL746-750/T790M, cells depend on it); test: Cell proliferation (MTT), BAF3 EGFR DEL T790M; type: cell-based
# Procedure: as §2
# [6] = test system: BAF3 EGFR L858R-T790M PURO POOL; test: Cell proliferation (MTT), BAF3 EGFR L858R-T790M; type: cell-based; settings: Ba/F3 EGFR
# Procedure: as §2
# Chain of human EGFR (native sequence) (P00533 25-1210): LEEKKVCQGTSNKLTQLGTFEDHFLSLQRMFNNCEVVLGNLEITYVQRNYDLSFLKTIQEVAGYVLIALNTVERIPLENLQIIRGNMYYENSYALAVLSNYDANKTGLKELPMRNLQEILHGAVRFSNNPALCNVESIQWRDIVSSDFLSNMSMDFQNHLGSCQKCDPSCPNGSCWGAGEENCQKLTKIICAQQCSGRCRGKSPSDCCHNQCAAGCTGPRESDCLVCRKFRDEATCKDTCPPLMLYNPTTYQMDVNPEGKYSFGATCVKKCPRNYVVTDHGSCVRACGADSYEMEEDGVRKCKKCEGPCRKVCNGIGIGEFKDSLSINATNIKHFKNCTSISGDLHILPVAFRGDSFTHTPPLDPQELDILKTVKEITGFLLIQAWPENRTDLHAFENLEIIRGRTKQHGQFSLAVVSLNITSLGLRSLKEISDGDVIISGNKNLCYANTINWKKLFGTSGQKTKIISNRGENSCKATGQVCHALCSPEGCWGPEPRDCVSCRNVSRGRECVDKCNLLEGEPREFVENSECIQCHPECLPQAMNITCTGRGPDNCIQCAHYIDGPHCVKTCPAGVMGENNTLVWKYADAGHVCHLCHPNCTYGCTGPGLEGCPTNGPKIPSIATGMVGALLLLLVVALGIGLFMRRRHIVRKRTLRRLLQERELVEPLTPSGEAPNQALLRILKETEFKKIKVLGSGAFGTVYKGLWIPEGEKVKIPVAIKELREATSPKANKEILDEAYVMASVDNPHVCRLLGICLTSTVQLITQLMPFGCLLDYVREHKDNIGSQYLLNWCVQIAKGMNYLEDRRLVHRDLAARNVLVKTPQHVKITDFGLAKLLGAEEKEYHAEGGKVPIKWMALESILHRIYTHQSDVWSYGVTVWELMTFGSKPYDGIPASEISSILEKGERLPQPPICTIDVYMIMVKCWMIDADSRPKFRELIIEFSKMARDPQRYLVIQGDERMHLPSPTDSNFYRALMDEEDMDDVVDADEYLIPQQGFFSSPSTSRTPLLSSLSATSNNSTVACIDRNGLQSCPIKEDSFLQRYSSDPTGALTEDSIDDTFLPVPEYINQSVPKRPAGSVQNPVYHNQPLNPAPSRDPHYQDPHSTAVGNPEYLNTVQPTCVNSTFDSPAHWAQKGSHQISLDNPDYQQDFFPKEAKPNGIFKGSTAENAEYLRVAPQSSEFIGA
# Chain of EGFR bearing the L858R/T790M double mutation (P00533 25-1210 T790M/L858R): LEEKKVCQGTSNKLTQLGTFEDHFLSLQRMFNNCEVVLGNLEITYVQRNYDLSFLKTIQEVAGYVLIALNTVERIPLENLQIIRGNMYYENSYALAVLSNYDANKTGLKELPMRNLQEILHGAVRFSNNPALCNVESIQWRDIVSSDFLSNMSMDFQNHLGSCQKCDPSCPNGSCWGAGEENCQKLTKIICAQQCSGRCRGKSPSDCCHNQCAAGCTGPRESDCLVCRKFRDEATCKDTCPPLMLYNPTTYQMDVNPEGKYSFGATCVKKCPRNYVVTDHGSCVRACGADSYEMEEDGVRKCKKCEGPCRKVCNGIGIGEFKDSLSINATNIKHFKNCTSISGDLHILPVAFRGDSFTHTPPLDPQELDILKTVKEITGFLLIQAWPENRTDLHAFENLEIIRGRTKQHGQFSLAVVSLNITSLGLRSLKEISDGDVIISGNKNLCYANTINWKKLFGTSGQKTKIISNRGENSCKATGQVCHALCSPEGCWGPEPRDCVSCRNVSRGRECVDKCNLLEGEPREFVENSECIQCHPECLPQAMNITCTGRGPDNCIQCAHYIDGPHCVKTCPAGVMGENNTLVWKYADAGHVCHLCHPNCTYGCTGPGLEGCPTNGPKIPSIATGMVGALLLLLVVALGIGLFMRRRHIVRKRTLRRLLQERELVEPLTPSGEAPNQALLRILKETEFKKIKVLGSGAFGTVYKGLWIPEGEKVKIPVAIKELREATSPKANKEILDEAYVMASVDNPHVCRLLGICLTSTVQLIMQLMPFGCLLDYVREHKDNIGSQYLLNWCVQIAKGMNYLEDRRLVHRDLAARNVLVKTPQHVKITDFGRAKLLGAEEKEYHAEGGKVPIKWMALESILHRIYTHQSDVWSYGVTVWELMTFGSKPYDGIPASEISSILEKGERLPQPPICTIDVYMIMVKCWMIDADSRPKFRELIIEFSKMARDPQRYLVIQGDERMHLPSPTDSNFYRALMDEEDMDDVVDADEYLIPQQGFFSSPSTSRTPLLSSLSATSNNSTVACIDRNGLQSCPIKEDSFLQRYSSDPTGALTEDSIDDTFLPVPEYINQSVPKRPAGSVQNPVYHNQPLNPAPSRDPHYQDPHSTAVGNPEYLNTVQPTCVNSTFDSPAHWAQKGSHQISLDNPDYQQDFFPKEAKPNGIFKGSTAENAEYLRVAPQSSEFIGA
# Chain of BAF3 EGFR DEL T790M PURO POOL (P00533 with tags, fused parts or gaps DEL746-750/T790M): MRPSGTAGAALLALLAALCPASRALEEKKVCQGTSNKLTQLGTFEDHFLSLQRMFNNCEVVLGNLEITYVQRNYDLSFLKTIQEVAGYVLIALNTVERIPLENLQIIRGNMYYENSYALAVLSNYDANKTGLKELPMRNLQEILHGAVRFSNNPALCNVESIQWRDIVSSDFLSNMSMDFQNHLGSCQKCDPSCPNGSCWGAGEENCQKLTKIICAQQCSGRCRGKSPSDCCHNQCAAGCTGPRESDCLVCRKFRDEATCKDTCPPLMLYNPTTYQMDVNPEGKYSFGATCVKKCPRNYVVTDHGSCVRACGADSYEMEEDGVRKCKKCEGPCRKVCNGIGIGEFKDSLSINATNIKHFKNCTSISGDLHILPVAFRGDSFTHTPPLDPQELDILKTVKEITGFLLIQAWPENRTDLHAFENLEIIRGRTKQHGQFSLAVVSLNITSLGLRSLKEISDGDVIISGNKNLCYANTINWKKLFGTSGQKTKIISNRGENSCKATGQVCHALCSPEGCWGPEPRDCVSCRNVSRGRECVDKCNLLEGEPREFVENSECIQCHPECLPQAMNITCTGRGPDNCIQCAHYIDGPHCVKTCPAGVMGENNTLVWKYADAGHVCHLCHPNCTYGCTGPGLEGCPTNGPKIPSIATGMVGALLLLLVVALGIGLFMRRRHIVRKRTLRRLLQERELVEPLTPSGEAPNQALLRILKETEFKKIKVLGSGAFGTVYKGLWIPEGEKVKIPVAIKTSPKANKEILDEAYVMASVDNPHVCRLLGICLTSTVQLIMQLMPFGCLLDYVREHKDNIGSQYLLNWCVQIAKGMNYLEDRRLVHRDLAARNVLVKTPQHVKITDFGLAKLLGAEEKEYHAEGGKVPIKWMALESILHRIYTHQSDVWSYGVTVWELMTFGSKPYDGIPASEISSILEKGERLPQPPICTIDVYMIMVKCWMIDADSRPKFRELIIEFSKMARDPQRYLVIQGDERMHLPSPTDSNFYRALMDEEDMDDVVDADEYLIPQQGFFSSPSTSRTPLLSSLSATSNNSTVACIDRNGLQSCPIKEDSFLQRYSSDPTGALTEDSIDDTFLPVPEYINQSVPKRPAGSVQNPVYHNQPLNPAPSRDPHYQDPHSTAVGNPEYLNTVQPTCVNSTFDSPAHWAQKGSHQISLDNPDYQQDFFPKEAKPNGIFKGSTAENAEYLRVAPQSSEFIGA
# Chain of EGFR bearing the L858R mution (P00533 25-1210 L858R): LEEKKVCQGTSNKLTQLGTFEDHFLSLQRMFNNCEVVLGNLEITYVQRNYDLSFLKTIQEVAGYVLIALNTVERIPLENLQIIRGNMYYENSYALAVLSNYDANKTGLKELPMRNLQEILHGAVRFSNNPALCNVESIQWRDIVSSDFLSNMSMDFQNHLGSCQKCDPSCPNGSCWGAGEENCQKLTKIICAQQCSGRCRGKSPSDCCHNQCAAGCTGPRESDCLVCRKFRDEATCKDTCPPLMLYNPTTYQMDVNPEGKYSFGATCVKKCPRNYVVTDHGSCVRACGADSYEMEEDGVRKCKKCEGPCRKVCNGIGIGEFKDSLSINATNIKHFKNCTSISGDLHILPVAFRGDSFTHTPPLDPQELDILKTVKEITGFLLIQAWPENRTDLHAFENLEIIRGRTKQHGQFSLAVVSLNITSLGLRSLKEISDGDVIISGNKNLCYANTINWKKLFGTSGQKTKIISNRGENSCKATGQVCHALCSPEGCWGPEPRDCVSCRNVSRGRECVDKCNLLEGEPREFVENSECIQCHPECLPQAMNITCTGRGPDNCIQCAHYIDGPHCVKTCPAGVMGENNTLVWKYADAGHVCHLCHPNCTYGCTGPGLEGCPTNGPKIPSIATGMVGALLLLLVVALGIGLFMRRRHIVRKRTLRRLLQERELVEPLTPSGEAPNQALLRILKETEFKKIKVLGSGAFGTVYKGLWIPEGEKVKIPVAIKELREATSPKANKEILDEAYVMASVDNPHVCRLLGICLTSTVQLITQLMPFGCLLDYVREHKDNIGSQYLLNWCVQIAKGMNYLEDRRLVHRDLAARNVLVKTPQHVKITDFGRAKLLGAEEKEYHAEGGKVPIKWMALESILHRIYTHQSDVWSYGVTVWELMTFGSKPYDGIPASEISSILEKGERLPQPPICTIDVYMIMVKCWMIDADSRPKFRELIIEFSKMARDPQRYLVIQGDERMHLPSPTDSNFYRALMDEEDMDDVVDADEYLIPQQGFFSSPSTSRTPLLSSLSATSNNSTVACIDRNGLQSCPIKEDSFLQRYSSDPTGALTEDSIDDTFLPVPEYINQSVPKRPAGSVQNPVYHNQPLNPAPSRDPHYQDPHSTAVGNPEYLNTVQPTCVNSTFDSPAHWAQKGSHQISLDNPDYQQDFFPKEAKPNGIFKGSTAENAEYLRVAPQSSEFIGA
IC50 [1] [nM],IC50 [2] [nM],IC50 [3] [nM],IC50 [5] [nM],IC50 [6] [nM],SMILES,IC50 [4] [nM]
–,≥ 250,≥ 250,≥ 250,–,"C/C=C/C(=O)Nc1ccc(OC)c(Nc2ncc(Cl)c(Nc3ccccc3P(C)(C)=O)n2)c1 [Example 5a, (E)-N-(3-((5-chloro-4-((2-(dimethylphosphoryl)phenyl)amino)pyrimidin-2-yl)amino)-4-methoxyphenyl)but-2-enamide]",≥ 250
–,≥ 250,≥ 250,≥ 250,–,"COc1ccc(NC(=O)C=C(C)C)cc1Nc1ncc(Cl)c(Nc2ccccc2P(C)(C)=O)n1 [Example 5b, N-(3-((5-chloro-4-((2-(dimethylphosphoryl)phenyl)amino)pyrimidin-2-yl)amino)-4-methoxyphenyl)-3-methylbut-2-enamide]",≥ 250
≥ 250,≥ 250,≥ 250,101 to 250,≥ 250,"C=C(C)C(=O)Nc1ccc(OC)c(Nc2ncc(Cl)c(Nc3ccccc3P(C)(C)=O)n2)c1 [Example 5c, N-(3-((5-chloro-4-((2-(dimethylphosphoryl)phenyl)amino)pyrimidin-2-yl)amino)-4-methoxyphenyl)methacrylamide]",≥ 250
101 to 250,< 51,< 51,< 51,< 51,"C=CC(=O)Nc1cccc(Nc2ncc(Cl)c(Nc3ccccc3P(C)(C)=O)n2)c1 [Example 5d, N-(3-((5-chloro-4-((2-(dimethylphosphoryl)phenyl)amino)pyrimidin-2-yl)amino)phenyl)acrylamide]",51 to 100
< 51,< 51,< 51,≥ 250,–,"C#CC(=O)Nc1ccc(OC)c(Nc2ncc(Cl)c(Nc3ccccc3P(C)(C)=O)n2)c1 [Example 6a, N-(3-((5-chloro-4-((2-(dimethylphosphoryl)phenyl)amino)pyrimidin-2-yl)amino)-4-methoxyphenyl)propiolamide]",≥ 250

# The remaining lines, values behind:
SMILES,IC50 [1] [nM],IC50 [2] [nM],IC50 [3] [nM],IC50 [5] [nM],IC50 [6] [nM],IC50 [4] [nM]
"C=CC(=O)N[C@@H]1CCC[C@@H](Nc2ncc(Cl)c(Nc3ccccc3P(C)(C)=O)n2)C1 (racemic) [Example 42, rac-N-((1R,3R)-3-((5-chloro-4-((2-(dimethylphosphoryl)phenyl)amino)pyrimidin-2-yl)amino)cyclohexyl)acrylamide]",≥ 250,≥ 250,≥ 250,≥ 250,–,≥ 250
"C=CC(=O)Nc1cc(Nc2ncc(Cl)c(Nc3ccccc3P(C)(C)=O)n2)c(OC)cc1O[C@@H](COC)CN(CC)CC (stereo in doubt) [Example 29, rac-(R)—N-(5-((5-chloro-4-((2-(dimethylphosphoryl)phenyl)amino)pyrimidin-2-yl)amino)-2-((1-(diethylamino)-3-methoxypropan-2-yl)oxy)-4-methoxyphenyl)acrylamide]",< 51,< 51,< 51,< 51,< 51,≥ 250
"C=CC(=O)Nc1cc(Nc2ncc(Cl)c(Nc3ccccc3P(C)(C)=O)n2)c(OC)cc1O[C@H](COC)CN(CC)CC (stereo in doubt) [Example 30, rac-(R)—N-(5-((5-chloro-4-((2-(dimethylphosphoryl)phenyl)amino)pyrimidin-2-yl)amino)-2-((1-(diethylamino)-3-methoxypropan-2-yl)oxy)-4-methoxyphenyl)acrylamide]",< 51,< 51,< 51,< 51,< 51,≥ 250
"C=CC(=O)N[C@H]1CCC[C@@H](Nc2ncc(Cl)c(Nc3ccccc3P(C)(C)=O)n2)C1 (stereo in doubt) [Example 43, N-(3-((5-chloro-4-((2-(dimethylphosphoryl)phenyl)amino)pyrimidin-2-yl)amino)cyclohexyl)acrylamide]",≥ 250,≥ 250,≥ 250,≥ 250,–,≥ 250
"C=CC(=O)Nc1ccc(OC)c(Nc2ncc(Cl)c(Nc3ccccc3P(C)(C)=O)n2)c1 [Example 1, N-(3-((5-chloro-4-((2-(dimethylphosphoryl)phenyl)amino)pyrimidin-2-yl)amino)-4-methoxyphenyl)acrylamide]",51 to 100,< 51,< 51,< 51,< 51,≥ 250
"COc1ccc(NC(=O)/C=C/CN(C)C)cc1Nc1ncc(Cl)c(Nc2ccccc2P(C)(C)=O)n1 [Example 2, (E)-N-(3-((5-chloro-4-((2-(dimethylphosphoryl)phenyl)amino)pyrimidin-2-yl)amino)-4-methoxyphenyl)-4-(dimethylamino)but-2-enamide]",101 to 250,< 51,< 51,< 51,51 to 100,≥ 250
"COc1ccc(NC(=O)/C=C/CN2CCOCC2)cc1Nc1ncc(Cl)c(Nc2ccccc2P(C)(C)=O)n1 [Example 3, (E)-N-(3-((5-chloro-4-((2-(dimethylphosphoryl)phenyl)amino)pyrimidin-2-yl)amino)-4-methoxyphenyl)-4-morpholinobut-2-enamide]",≥ 250,< 51,51 to 100,–,–,≥ 250
"COc1ccc(NC(=O)/C=C/CN2CCN(C)CC2)cc1Nc1ncc(Cl)c(Nc2ccccc2P(C)(C)=O)n1 [Example 4, (E)-N-(3-((5-chloro-4-((2-(dimethylphosphoryl)phenyl)amino)pyrimidin-2-yl)amino)-4-methoxyphenyl)-4-(4-methylpiperazin-1-yl)but-2-enamide]",≥ 250,< 51,101 to 250,≥ 250,–,≥ 250
"C=CS(=O)(=O)Nc1ccc(OC)c(Nc2ncc(Cl)c(Nc3ccccc3P(C)(C)=O)n2)c1 [Example 7, N-(3-((5-chloro-4-((2-(dimethylphosphoryl)phenyl)amino)pyrimidin-2-yl)amino)-4-methoxyphenyl)ethenesulfonamide]",< 51,< 51,< 51,–,–,≥ 250
"C=C(CNc1ccc(OC)c(Nc2ncc(Cl)c(Nc3ccccc3P(C)(C)=O)n2)c1)C(=O)OC [Example 16, methyl 2-(((3-((5-chloro-4-((2-(dimethylphosphoryl)phenyl)amino)pyrimidin-2-yl)amino)-4-methoxyphenyl)amino)methyl)acrylate]",≥ 250,< 51,101 to 250,–,–,≥ 250
"C=CC(=O)Nc1ccc(OC)c(Nc2nc(Nc3ccccc3P(C)(C)=O)c3c(F)c[nH]c3n2)c1 [Example 23, N-(3-((4-((2-(dimethylphosphoryl)phenyl)amino)-5-fluoro-7H-pyrrolo[2,3-d]pyrimidin-2-yl)amino)-4-methoxyphenyl)acrylamide]",≥ 250,≥ 250,101 to 250,≥ 250,–,≥ 250
"C=CC(=O)Nc1ccc(Nc2ncc(Cl)c(Nc3ccccc3P(C)(C)=O)n2)c(OC)c1 [Example 45, N-(4-((5-chloro-4-((2-(dimethylphosphoryl)phenyl)amino)pyrimidin-2-yl)amino)-3-methoxyphenyl)acrylamide]",≥ 250,101 to 250,≥ 250,≥ 250,–,≥ 250
